Values joined by “and” are separate entries in the source; they are usually repeats but may differ in a detail not shown here. Equal values may be shown once. Ends that are not written are not given here.
How the values were obtained:
human erythrocytes [1] = format: cell-based
[2] = format: physicochemical; settings: for hydrodynamic diameter (DLS): Zetasizer Nano ZS, back scattering 173°
human erythrocytes [3] = assay: Hemolysis assay; format: cell-based; settings: 2% human erythrocytes, 1 h at 37 °C, absorption of the supernatant at 540 nm; titration, three experiments; for C18-s2s above concentrations of 20 µM
Experimental: To assess how strong membrane incorporation of these peptides can perturb membranes we measured their cell lytic activity in a titration experiment with human erythrocytes. […] For EB the same has been reported by Jones et al..
Figure 7 Hemolytic activity of stearylated peptides and EB. 2% human erythrocytes were incubated for one hour with peptides at 37 °C. After centrifugation, the hemolytic activity was assessed by absorption measurement of the supernatant at 540 nm. Error bars indicate the SEM of three titration experiments.
Peptide inhibitors were serially diluted in PBS, mixed with a 2% human erythrocyte solution, and incubated for 1 h at 37 °C. Afterwards, the mix was centrifuged for 10 min at 1500 x g.
Supernatants were measured for absorption at 540 nm representative for hemoglobin release. Buffer absorbance was subtracted from all data points.
Protection from infection assay
Viral infection inhibition assays were performed using an MTS reagent (Promega). 15,000 MDCK II cells were seeded the day before infection. […] Two hours before the readout, 20 µL MTS solution (Promega) was added to each well and put back to 37 °C for the remaining time. Finally, absorbance at 490 nm was measured by a plate reader (Fluostar optima, BMG) and data were normalized to maximum viral cytotoxicity. […]

[4] = system: Aichi H3N2 virus (X31) mediated hemagglutination of human erythrocytes; format: cell-based, influenza A virus A/Aichi/2/1968 H3N2 (X31)
[5] = system: Rostock H7N1 virus mediated hemagglutination of turkey erythrocytes; format: cell-based, influenza A virus A/FPV/Rostock/34 H7N1
[6] = format: physicochemical; settings: 2 mM in PBS, negative staining with 1% phosphotungstic acid pH 7.4; cryo-TEM gave the same results
[7] = system: infection of MDCK II cells by Rostock H7N1; format: cell-based, influenza A virus A/FPV/Rostock/34 H7N1
[8] = system: infection of MDCK II cells by Aichi H3N2; format: cell-based, influenza A virus A/Aichi/2/1968 H3N2 (X31)
Aichi H3N2 = settings: at higher viral titer than used in this paper; ref [14]; read-out: IC50 against Aichi H3N2 in the HAI; cited from earlier work
Experimental: The potential to inhibit binding of influenza viruses to cells can be investigated by the well-established hemagglutination inhibition assay (HAI). All peptides, but the control peptide C18-rs2s were able to inhibit Aichi H3N2 virus mediated hemagglutination already at low micromolar concentrations (Table 2). For EB an IC50 of 20 µM against Aichi H3N2 in the HAI has been determined, however at higher viral titer than we used.

Hongkong H5N1 = settings: read-out: IC50 against Hongkong H5N1; cited from earlier work
[9] = 20 µM in PBS (10 mM, pH 7.4), volume distribution profile

Substance | KiA (human erythrocytes [1]) | volume size distribution (DLS), in words ([2]; 20 µM in PBS (10 mM, pH 7.4)) | hemolytic activity (human erythrocytes [3]) | KiHAI (Aichi H3N2) [4] | PDI (DLS) ([2]; 20 µM in PBS (10 mM, pH 7.4)) | hydrodynamic diameter (DLS) [2, 9] | share of bigger supramolecular structures (DLS) [2, 9] | size of supramolecular aggregates (DLS) ([2]; concentration of 100 µM) | KiHAI (Rostock H7N1) [5] | decrease of the KiHAI value compared with unmodified PeB^GF, H7N1 [5] | morphology of assemblies (TEM) [6] | enhancement of inhibition in infection inhibition compared with unmodified PeB^GF, Rostock H7N1 [7] | IC50 ([7]; read-out: IC50, infection inhibition of MDCK cells by Rostock H7N1) | enhancement of inhibitory potential in infection inhibition compared with unmodified PeB^GF, Aichi H3N2 [8] | IC50 ([8]; read-out: IC50, infection inhibition of MDCK cells by Aichi H3N2) | decrease of the KiHAI value compared with unmodified PeB^GF, Aichi H3N2 [4] | IC50 (Aichi H3N2) | IC50 (Hongkong H5N1)
C17H35CO-ARLPRTMV-CONH2 [C18-s2s, stearylated sialic acid mimetic peptide (Matsubara et al. 2010)] | 7.0 ± 0.8 µM | multimodal | extremely hemolytic | 0.8 ± 0.5 µM | – | – | – | – | – | – | – | – | – | – | – | – | – | –
C17H35CO-VMTRPLRA-CONH2 [C18-rs2s, reference compound] | 4.1 ± 2.1 µM | – | – | no effect | 0.328 | 818.8 nm | – | – | – | – | – | – | – | – | – | – | – | –
C17H35CO-XXXXXXXXXXXXXXX-CONH2 [C18-PeB^GF, stearylated HA antibody derived antiviral peptide] | 100.0 ± 0.0 µM | – | – | 1.2 ± 0.0 µM | 0.454 | 16.7 nm | 10–15% | > 1 µm | 2.8 µM and 2.8 ± 0.9 µM | 10 fold | fibrillar supramolecular arrangement being up to several hundred nanometers long | did not increase | 84 µM | approx. 5 fold | 5.9 µM | 20 fold | – | –
RRKKAAVALLPAVLLALLAP-NH2 [EB] | 8.6 ± 7.0 µM | – | – | 1.6 ± 0.3 µM | – | – | – | – | – | – | – | – | – | – | – | – | 20 µM | 4.5 µM
